In assay [1] the test system is acetic acid-induced writhing. Nature of the assay: Acetic acid-induced writhing test on mice. It is filed as in vivo, mouse. The note with it: for Numbers of writhings: mean ± SD. The procedure:
In order to measure an antinociceptive activity, 1% acetic acid (100 μl) was intraperitoneally injected to a mouse. 10 minutes after the injection of the acetic acid, the number of writhings was counted for 10 minutes. Before the injection of the acetic acid, a test material dissolved in a mixture including DMSO and water at a ratio of 1:1 was orally administered (0.1 ml/mouse).
Each group consisted of 6 mice. Measurement values were represented by arithmetic mean±SD (a of Table 3). b of Table 3 indicates an inhibitory activity % compared to the control group treated with the acetic acid. * indicates a significant difference of P<0.05 compared to the acetic acid-treated control group.

In assay [2] the test system is AA-induced mouse ear edema. Kind of assay: Arachidonic acid (AA)-induced mouse ear edema. It is filed as in vivo. As to conditions: 20 mg/kg oral. The procedure:
AA-induced mouse ear edema assay was used to identify an anti-inflammatory activity in vivo in anti-inflammatory animal model. According to a method disclosed in Kim et al. (1993), 2% AA acetone solution was applied to an ear of a mouse (20 μl/ear), and after one hour, a thickness of the ear was measured using a dial thickness gauge (Mitutoyo, Japan). One hour before the AA treatment, a test material dissolved in a mixture including DMSO and water at a mixture ratio of 1:1 was orally administered to the mouse (0.1 ml/mouse).

Assay [3] has as its system CGN-induced mouse paw edema. Nature of the assay: λ-Carrageenan (CGN)-induced mouse paw edema. It is filed as in vivo. As to conditions: for Paw volume increased: 5 h after CGN, mean ± SD. The procedure:
Mouse CGN-induced paw edema assay was performed to measure an anti-inflammatory activity according to a slightly modified method disclosed in Winter et al. (1962). […] If the volume was greater than that before the addition of CGN, it was deemed that edema developed. The test material was dissolved in a mixture including DMSO and water at a mixture ratio of 1:1 and then was orally administered. A volume of a negative control group which was not treated with CGN was 0.149±0.025 ml.

Assay [4] addresses T1, 5-LOX (Rattus norvegicus, UniProt P12527).
T1 construct: RBL-1 cells obtained from American Type Culture Collection; endogenous in cells; host or cells: RBL-1 (rat basophilic leukemia) cells, ATCC
T1 sequence (P12527 1-673): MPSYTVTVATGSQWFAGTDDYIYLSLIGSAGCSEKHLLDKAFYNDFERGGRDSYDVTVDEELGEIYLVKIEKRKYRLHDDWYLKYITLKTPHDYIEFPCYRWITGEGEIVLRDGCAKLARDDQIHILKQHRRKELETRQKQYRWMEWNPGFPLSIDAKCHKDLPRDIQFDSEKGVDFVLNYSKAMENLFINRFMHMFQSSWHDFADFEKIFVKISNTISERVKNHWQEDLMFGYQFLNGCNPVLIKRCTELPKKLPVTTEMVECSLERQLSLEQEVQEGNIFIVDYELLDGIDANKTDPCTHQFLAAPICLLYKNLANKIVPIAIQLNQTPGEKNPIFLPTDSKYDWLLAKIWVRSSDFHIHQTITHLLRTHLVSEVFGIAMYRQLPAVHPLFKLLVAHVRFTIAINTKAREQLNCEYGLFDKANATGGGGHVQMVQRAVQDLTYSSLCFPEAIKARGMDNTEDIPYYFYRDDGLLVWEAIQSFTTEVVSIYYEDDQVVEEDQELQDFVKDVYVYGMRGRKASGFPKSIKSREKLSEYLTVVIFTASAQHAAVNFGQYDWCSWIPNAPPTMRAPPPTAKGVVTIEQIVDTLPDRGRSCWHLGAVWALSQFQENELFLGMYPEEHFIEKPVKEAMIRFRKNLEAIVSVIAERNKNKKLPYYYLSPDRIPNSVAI
Nature of the assay: 5-LOX-mediated cysteinyl leukotriene (LTC4/D4/E4) production in A23187-treated RBL-1 cells. The note with it: 1 nM, read-out: 5-LOX inhibitory activity. It is filed as cell-based. The procedure: The cells were placed on 96-well plates for 2 hours, and incubated in advance with a test material for 10 minutes. The test material was dissolved in DMSO and diluted with serum-free DMEM at an appropriate concentration. The final concentration of DMSO was adjusted to be 0.1% (v/v). […] A medium used was collected and a concentration of cysteinyl leukotrienes (LTC4/D4/E4) produced by 5-LOX was measured using an ELISA kit (Cayman Chem.) according to a method recommended by the manufacturer.
It is known that when RBL-1 cells are activated by A23187 (calcium ionophore), a great amount of cysteinyl-LTs is generated by 5-LOX.

For `CC(=O)Oc1ccccc1C(=O)O` [Aspirin, aspirin], in assay [1] (Exp. 1, 100 mg/kg oral), the “inhibitory activity % compared to the acetic acid-treated control group (writhings)” value is 60.9% and the Numbers of writhings is 5.7 ± 3.8. Also, in assay [1] (Exp. 2, 100 mg/kg oral), the “inhibitory activity % compared to the acetic acid-treated control group (writhings)” value was determined as 46.1% and the Numbers of writhings is listed as 9.6 ± 3.2.
For `COc1ccc2c(c1)c(CC(=O)O)c(C)n2C(=O)c1ccc(Cl)cc1` [Indomethacin, indomethacin], in assay [2], the “inhibitory activity % compared to the AA-treated control group (ear edema)” value was 70%. Also, the Ear thickness increased in assay [2] (1 h after AA, mean ± SD) is reported as 0.021 ± 0.013 mm. Also, the “inhibitory activity % compared to the CGN-treated control group (paw edema)” value in assay [3] (20 mg/kg oral) was 23.7%; in assay [3] (100 mg/kg oral), 44.7%. Moreover, the Paw volume increased in assay [3] (20 mg/kg oral) was 0.116 ± 0.039 mL; in assay [3] (100 mg/kg oral), 0.084 ± 0.019 mL.
`CC(Cc1ccc(O)c(O)c1)C(C)Cc1ccc(O)c(O)c1` (stereo not shown) [NDGA, nordihydroguaiaretic acid]: in assay [4], the inhibition at 0.001 µM came out at 99%.
Take `C[C@]12C=CC(=O)C=C1CC[C@@H]1[C@@H]2[C@@H](O)C[C@@]2(C)[C@H]1CC[C@]2(O)C(=O)CO` [Prednisolone, prednisolone]: in assay [3] (20 mg/kg oral), the “inhibitory activity % compared to the CGN-treated control group (paw edema)” value is on record as 50.0% and the Paw volume increased was determined as 0.076 ± 0.011 mL.

The values are drawn from patent publication US20120021011A1, “ANTI-INFLAMMATORY PHARMACEUTICAL COMPOSITION COMPRISING EXTRACTS FROM BROUSSONETIA PAPYRIFERA AND LONICERA JAPONICA” (Knu-Industry Cooperation Foundation, priority 2009, published 2012).
